This is an account of results in paper PMC12985355 (Journal of the American Chemical Society, 2025).

Read-outs that look alike come from different tables or passages of the source.

One test addresses CntL (Staphylococcus aureus, UniProt A0A0H3JXA8). The test is described as follows: thermal shift assay. Format: binding.
In test [1] the target is T1, NAT (SAM:nocardicin 3-ACP transferase) (Nocardia uniformis, UniProt Q9RAH6).
T1 sequence (Q9RAH6 1-301): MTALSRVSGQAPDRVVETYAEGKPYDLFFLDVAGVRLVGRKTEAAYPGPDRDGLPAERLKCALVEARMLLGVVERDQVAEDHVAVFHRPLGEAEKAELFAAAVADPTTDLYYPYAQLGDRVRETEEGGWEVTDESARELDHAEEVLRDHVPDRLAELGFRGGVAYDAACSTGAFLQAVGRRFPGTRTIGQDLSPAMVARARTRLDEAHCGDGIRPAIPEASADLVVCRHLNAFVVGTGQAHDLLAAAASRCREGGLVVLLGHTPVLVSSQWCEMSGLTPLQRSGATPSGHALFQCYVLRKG
The test is described as follows: thermal shift assay. Format: binding. Conditions: further addition to enzyme with nocardicin E (2).

Test [2] has as its target T1, NAT (SAM:nocardicin 3-ACP transferase). The test is described as follows: 3-ACP transfer, LC-MS. It counts as biochemical. Particulars: SAM as co-substrate; very low yield.
For test [3] the target is unchanged. Kind of test: thermal shift assay. Particulars: binds to a similar extent as SAM; no turnover with nocardicin E. It counts as binding.

Sequence of CntL (A0A0H3JXA8 whole entry): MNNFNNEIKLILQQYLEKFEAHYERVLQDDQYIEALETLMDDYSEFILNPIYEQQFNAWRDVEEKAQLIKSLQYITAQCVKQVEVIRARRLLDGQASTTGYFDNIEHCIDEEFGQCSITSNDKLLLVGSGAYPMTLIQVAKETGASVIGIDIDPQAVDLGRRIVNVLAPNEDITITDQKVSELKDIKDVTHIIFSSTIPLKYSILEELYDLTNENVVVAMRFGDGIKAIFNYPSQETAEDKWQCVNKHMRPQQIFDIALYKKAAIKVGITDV

For the compound `N[C@H](Cc1c[nH]cn1)C(=O)O` [D-histidine], at CntL (with SAM present, no shift with da-SAM), the melting point entry is “the melting point increased when CntL was combined with SAM and D-his”.
For `C[S+](CC[C@H](N)C(=O)O)C[C@H]1O[C@@H](n2cnc3c(N)ncnc32)[C@H](O)[C@@H]1O` (stereo partly drawn) [SAM], the melting point result at CntL is reported as “da-SAM can bind to the enzyme to the same extent as SAM”. Besides, in test [1], the “increase in melting temperature” value worked out at 7 °C.
`CC1(C)S[C@@H]2[C@H](NC(=O)[C@H](N)c3ccc(O)cc3)C(=O)N2[C@H]1C(=O)O` [amoxicillin]: the “3-ACP transfer, LC-MS” value in test [2] is reported as “NAT accepted both of them, to produce the 3-ACP-β-lactam products”.
For the compound `CC1=C(C(=O)O)N2C(=O)[C@@H](NC(=O)[C@H](N)c3ccc(O)cc3)[C@H]2SC1` [cefadroxil], the “3-ACP transfer, LC-MS” value in test [2] is “NAT accepted both of them, to produce the 3-ACP-β-lactam products”.
For the compound `C[S+](CCCC(=O)[O-])C[C@H]1O[C@@H](n2cnc3c(N)ncnc32)[C@H](O)[C@@H]1O` (stereo partly drawn) [deamino-SAM], the melting temperature entry in test [3] is recorded as “deamino-SAM can bind to the enzyme to a similar extent as SAM”.
